These results are taken from ChEMBL document CHEMBL5634194, “Novel Myeloperoxidase Inhibitors for Treating Multiple Diseases” (ACS Med Chem Lett, 2024).

The target of the assay is T1, Myeloperoxidase (Homo sapiens, UniProt P05164).
T1 sequence (P05164 whole entry): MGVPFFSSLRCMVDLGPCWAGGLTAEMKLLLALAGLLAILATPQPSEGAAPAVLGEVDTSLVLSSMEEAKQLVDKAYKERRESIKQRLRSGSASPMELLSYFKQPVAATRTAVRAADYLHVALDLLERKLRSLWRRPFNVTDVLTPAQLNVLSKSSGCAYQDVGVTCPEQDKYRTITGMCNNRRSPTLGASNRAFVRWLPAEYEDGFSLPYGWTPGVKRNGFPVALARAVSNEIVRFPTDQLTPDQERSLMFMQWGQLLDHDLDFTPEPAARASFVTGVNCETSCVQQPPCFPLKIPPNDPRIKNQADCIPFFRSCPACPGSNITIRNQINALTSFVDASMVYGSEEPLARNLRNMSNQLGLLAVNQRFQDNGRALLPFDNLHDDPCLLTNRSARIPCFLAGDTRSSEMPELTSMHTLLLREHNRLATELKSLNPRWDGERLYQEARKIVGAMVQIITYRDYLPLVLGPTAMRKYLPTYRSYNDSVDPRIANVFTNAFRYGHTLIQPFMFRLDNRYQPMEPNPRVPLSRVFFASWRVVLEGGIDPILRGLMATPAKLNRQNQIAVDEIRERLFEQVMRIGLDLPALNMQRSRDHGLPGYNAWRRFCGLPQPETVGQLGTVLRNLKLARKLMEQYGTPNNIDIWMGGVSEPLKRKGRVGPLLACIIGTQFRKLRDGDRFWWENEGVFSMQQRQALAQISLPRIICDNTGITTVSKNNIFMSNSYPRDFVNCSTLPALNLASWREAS
The experiment in a line: Inhibition of human MPO using H2O2 as substrate measured after 15 mins by chemiluminescence based assay.
A word on the IC50: it is the concentration that gives 50% inhibition. A high value points to weaker potency. Regarding `O=c1[nH]c(=S)n(Cc2ccccc2[C@@H]2C[C@H](C(F)F)CCN2)c2cc[nH]c12`, the IC50 was 1 nM.

With `O=c1[nH]c(=S)n(Cc2ccccc2[C@H]2C[C@H](C(F)(F)F)CCN2)c2nc[nH]c12`, the IC50 was 3 nM. Compared with the last compound, the IC50 is about 3-fold higher. Next, `O=c1[nH]c(=S)n(Cc2ccccc2[C@@H]2CC(F)(F)CCN2)c2cc[nH]c12`: 3 nM.

Consider `O=c1[nH]c(=S)n(Cc2ccccc2[C@@H]2CCCCN2)c2cc[nH]c12`, for which half-maximal inhibition (IC50) required 2 nM. The value for `O=c1[nH]c(=S)n(Cc2ccccc2[C@@H]2C[C@H](C(F)(F)F)CCN2)c2nc[nH]c12` was 2 nM; that for `O=c1[nH]c(=S)n(Cc2ccccc2[C@H]2C[C@@H](C(F)(F)F)CCN2)c2cc[nH]c12` was 2 nM.
